Eleven compounds from ChEMBL document CHEMBL3124821, “Activity of caffeic acid derivatives against Candida albicans biofilm” (Bioorg Med Chem Lett, 2014) can be followed below.

What is called CC50 is the concentration that lowers cell viability or growth by half. Low readings indicate greater toxicity to the cells, high ones lower toxicity to the cells.

Converted amounts (≈) assume the structure as drawn.

Data set [1] relates to Candida albicans. Kind of data set: Antifungal activity against mature preformed Candida albicans ATCC 10231 biofilm by XTT reduction assay. It counts as functional. Background: Tetrazolium dyes change colour on reduction, which living cells bring about.
For data set [2], the system named is Candida albicans. Kind of data set: Antifungal activity against early stage preformed Candida albicans ATCC 10231 biofilm by XTT reduction assay. It counts as functional.
Data set [3] deals with Candida albicans. The data set is described as follows: Antifungal activity against planktonically grown Candida albicans ATCC 10231 by CLSI M27 A3 broth microdilution method. It counts as functional. A general note: Broth dilution looks for growth in wells or tubes with falling amounts of substance.
Data set [4] deals with Candida albicans. Kind of data set: Inhibition of biofilm formation of Candida albicans ATCC 10231 by XTT reduction assay. It counts as functional.
A further data set in a line: in vitro. The note with it: human, NCI-H292 cells.
Data set [5] concerns Candida albicans. The data set is described as follows: Ratio of compound MIC to fluconazole MIC for biofilm formation of Candida albicans ATCC 10231 by XTT reduction assay. It counts as functional.

Description for in vitro: Cytotoxicity against human NCI-H292 cells assessed as reduction in viable cells by MTT assay

Turning to `CCCOC(=O)/C=C/c1ccc(O)c(O)c1`, the MIC50 in the data set on Candida albicans [1] came to 256 µg/mL (≈ 1150 µM); in the data set on Candida albicans [2], 256 µg/mL (≈ 1150 µM); in the data set with Candida albicans [3] it was 128 µg/mL (≈ 576 µM); against Candida albicans [4] it was 256 µg/mL (≈ 1150 µM).
In the case of `COc1ccc(OC(=O)/C=C/c2ccc(O)c(O)c2)cc1F`, the MIC50 was determined as 256 µg/mL (≈ 841 µM) with Candida albicans [1], 128 µg/mL (≈ 421 µM) in the data set on Candida albicans [3] and 256 µg/mL (≈ 841 µM) against Candida albicans [4].
Turning to `O=C(/C=C/c1ccc(O)c(O)c1)OCc1ccc([N+](=O)[O-])o1`, the MIC50 with Candida albicans [1] came out at 128 µg/mL (≈ 419 µM); in the data set with Candida albicans [2], 64 µg/mL (≈ 210 µM); in the data set on Candida albicans [3], 16 µg/mL (≈ 52.4 µM); in the data set on Candida albicans [4], 32 µg/mL (≈ 105 µM). The compound further registered a CC50 in the data set “in vitro” of 192 µg/mL (≈ 627 µM).
Regarding `O=C(/C=C/c1ccccc1)OCc1ccc([N+](=O)[O-])o1`, the MIC50 came out at 64 µg/mL (≈ 234 µM) in the data set with Candida albicans [1], 32 µg/mL (≈ 117 µM) with Candida albicans [2], 2 µg/mL (≈ 7.32 µM) against Candida albicans [3] and 32 µg/mL (≈ 117 µM) against Candida albicans [4]. The compound further gave a 50% cytotoxic concentration (CC50) in the data set “in vitro” of 174 µg/mL (≈ 638 µM).
Regarding `O=C(CCc1ccc(O)c(O)c1)OCc1ccc([N+](=O)[O-])o1`, the MIC50 against Candida albicans [1] turned out to be 128 µg/mL (≈ 417 µM); in the data set on Candida albicans [2], 128 µg/mL (≈ 417 µM); in the data set with Candida albicans [3], 64 µg/mL (≈ 208 µM); in the data set with Candida albicans [4], 128 µg/mL (≈ 417 µM). Further, the CC50 in “in vitro” was determined as 257 µg/mL (≈ 835 µM).
On to `O=C(OCc1ccc([N+](=O)[O-])o1)c1ccc(O)c(O)c1`, for which the Ratio in the data set on Candida albicans [5] amounted to 8. Moreover, the MIC50 with Candida albicans [1] was found to be 64 µg/mL (≈ 229 µM); in the data set on Candida albicans [2], 64 µg/mL (≈ 229 µM); in the data set with Candida albicans [3] it was 16 µg/mL (≈ 57.3 µM); against Candida albicans [4], 16 µg/mL (≈ 57.3 µM). For the same compound, the CC50 in the data set “in vitro” came to 132 µg/mL (≈ 473 µM).
Consider `CC(C)COC(=O)/C=C/c1ccc(O)c(O)c1`, for which the results for the MIC50 in the data set on Candida albicans [1], in the data set on Candida albicans [3] and against Candida albicans [4] were 256 µg/mL (≈ 1080 µM), 128 µg/mL (≈ 542 µM) and 256 µg/mL (≈ 1080 µM), respectively.
As to `O=C(O)/C=C/c1ccc(O)c(O)c1` [CAFFEIC ACID], the MIC50 in the data set with Candida albicans [1] amounted to 256 µg/mL (≈ 1420 µM); in the data set with Candida albicans [2], 256 µg/mL (≈ 1420 µM); in the data set with Candida albicans [3] it was 128 µg/mL (≈ 710 µM); in the data set on Candida albicans [4] it was 256 µg/mL (≈ 1420 µM).
Consider `CCOC(=O)/C=C/c1ccc(O)c(O)c1` [ETHYL CAFFEATE], for which the MIC50 amounted to 256 µg/mL (≈ 1230 µM) against Candida albicans [1], 128 µg/mL (≈ 615 µM) against Candida albicans [3] and 256 µg/mL (≈ 1230 µM) against Candida albicans [4].
`OC(Cn1cncn1)(Cn1cncn1)c1ccc(F)cc1F` [FLUCONAZOLE]: the MIC50 came out at 256 µg/mL (≈ 836 µM) against Candida albicans [1], 256 µg/mL (≈ 836 µM) with Candida albicans [2], 0.5 µg/mL (≈ 1.63 µM) against Candida albicans [3] and 128 µg/mL (≈ 418 µM) against Candida albicans [4].
In the case of `COC(=O)/C=C/c1ccc(O)c(O)c1` [METHYLCAFFEATE], the MIC50 against Candida albicans [1] worked out at 256 µg/mL (≈ 1320 µM); against Candida albicans [3], 128 µg/mL (≈ 659 µM); in the data set with Candida albicans [4], 256 µg/mL (≈ 1320 µM).
